The text below walks through data of US20250161399A1, “TARGETING SLC46A2-MEDIATED MUROPEPTIDE TRANSPORT TO TREAT PSORIASIS” (University of Massachusetts, priority 2021, published 2025).

Entries after “also recorded” stand apart in the source; their conditions may differ.

Assay [1] deals with primary mouse keratinocytes. Nature of the assay: keratinocyte cell permeabilization assay (Sytox dye uptake, live cell imaging). Type of assay: cell-based. The conditions noted are these: WT keratinocytes, 30 μM iE-DAP, 24 h; MTX increasing concentration, zVAD-fmk 10 μM, DMF 50 μM. As to the method: (§1) Adult (6-8 weeks) mouse keratinocytes were isolated from male or female animals using protocols described previously (57). In brief, tail skin was incubated in 1 mg/ml Dispase II (Roche) overnight at 4° C. The epidermis was physically removed from the dermis with tweezers following Dispase II treatment, subsequently digested with TrypLE (Thermo) for 20 min at room temperature, and keratinocytes were detached by vigorously shaking in EpiLife culture medium and filtered with a 70 μm strainer (Fisher scientific). Isolated cells were seeded at a density of 10^5 cells/cm^2 cultured with EpiLife (Gibco) in 12-well plates precoated with coating matrix (Gibco) and used between 3 and 5 days after isolation.
For cell permeabilization assays, 1×10^5 keratinocytes/well were seeded in a 96-well plate (Denville Scientific Inc.). After reaching 80% confluency, 30 μM iE-DAP was added to culture media with 1 nM Sytox red dye (Thermo) and 0.2 nM hoechst stain (Thermo). Plates were then cultured in a Cytation5 (BioTek) live imaging device and each well was imaged every 30 min for 24 hours. For analysis, Gen5 software were used to count the total number of Hoechst-stained nuclei and the total number of permeabilized cells were quantified as the number of Sytox positive nuclei. The Percentage of Sytox^+ cells was then calculated and plotted.

In assay [2] the test system is psoriasis-like inflammation on mouse pinnae. The experiment in a line: IMQ model of psoriasis-like dermatitis (ear thickness, H&E histology). In kind it is in vivo. To be noted: IMQ daily with topical 50 μl of 250 μM MTX. The method, then: Pinnae were harvested 3 h after DAP-muropeptide administration or 7 d after topical application of IMQ and fixed in PBS containing 10% formalin. Paraffin-embedded sections were cut at […], stained with H&E, and imaged by light microscopy.
The induction of psoriasis-like inflammation on mouse pinnae was done as previously described (60). In brief, mice were treated daily for up to 6 d with 5 mg 5% IMQ cream topically applied on one pinna, while the other pinnae were treated with a similar amount of Vaseline, as vehicle control. Ear thickness was measured daily using a digital caliper. The change in ear thickness over time was reported as the difference related to the first day of topical application. For the bacterial assisted psoriasis model, 5 mg 5% IMQ cream was topically applied on one pinna, while the contralateral pinna was treated with a similar amount of Vaseline for 3 days, and then 10^7 CFU of C. accolens, in 50% glycerol, was topically applied daily to both pinnae. Ear thickness was measured daily using a digital caliper. C. accolens, originally from ATCC, was provided by J. Kang and grown as described (61).

The next assay concerns the target T1, Slc46a2 (Mus musculus, UniProt Q8CA03).
T1 construct: primary mouse keratinocytes, which express Slc46a2 and Nod1; endogenous in cells; host or cells: primary mouse epidermal keratinocytes (WT or Nod1-/-; Slc46a2-/- cells served as the negative control)
T1 sequence (Q8CA03 1-479): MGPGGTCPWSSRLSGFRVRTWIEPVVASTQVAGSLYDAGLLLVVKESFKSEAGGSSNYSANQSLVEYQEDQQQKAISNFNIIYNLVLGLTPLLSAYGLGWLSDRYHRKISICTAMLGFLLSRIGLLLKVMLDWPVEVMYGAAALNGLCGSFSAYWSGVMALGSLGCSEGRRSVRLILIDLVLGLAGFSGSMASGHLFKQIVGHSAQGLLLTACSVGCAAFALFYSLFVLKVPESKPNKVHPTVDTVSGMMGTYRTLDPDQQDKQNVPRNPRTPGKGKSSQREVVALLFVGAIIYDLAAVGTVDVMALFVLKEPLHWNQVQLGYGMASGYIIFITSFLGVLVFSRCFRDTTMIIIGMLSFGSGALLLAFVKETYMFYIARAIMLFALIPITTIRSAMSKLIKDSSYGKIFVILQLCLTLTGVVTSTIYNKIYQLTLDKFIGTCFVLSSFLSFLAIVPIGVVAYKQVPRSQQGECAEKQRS
The experiment in a line: click-muropeptide uptake into keratinocytes (CalFluor 488 Azide, confocal imaging and lysate fluorescence). In kind it is cell-based. To be noted: WT or Nod1−/− keratinocytes, 30 μM click-iE-DAP; MTX 250 μM or unlabeled iE-DAP 30 μM. The method, then:
For visualization, mouse keratinocytes were challenged with click-iE-DAP (30 μM) or click-MDP (20 μM) 37° C. for 30-60 min, cells washed 2× with 1×PBS to remove access of click-muropeptides and fixed with 4% paraformaldehyde in PBS at RT for 10 min. Cells were permeabilized with 1% Triton-X in PBS for 10 min at RT and blocked with 1% BSA in PBS. These permeabilized cells were then incubated in click-reaction conditions (250 μM CuSO4, 35 μM BTAA, 60 μM sodium ascorbate) with 2.5 μM CalFluor 488 Azide at RT for 30 mins. Cells were then washed and mounted on slides, with DAPI containing mounting media. Slides were imaged with a Leica SP8 confocal microscope.

Assay [3] concerns primary mouse keratinocytes. The experiment in a line: lipid nanoparticle (NP) mediated iE-DAP/dye delivery into keratinocytes. The conditions noted are these: keratinocytes pretreated with 250 μM MTX, iE-DAP delivered by dye-loaded NP. Type of assay: cell-based. The method, then: Briefly, a matrix of DOPC/DSPC/DOPG/cholesterol/DSPE-mPEG at 33.5/33.5/20/10/3 mol % was prepared in chloroform and dry lipid/cholesterol films were allowed to form. Films were rehydrated with iE-DAP (Invivogen) prepared in PBS at 1.2 mg/mL and these samples were vortexed for 30 sec every 10 min for 1 hr at 56° C. to complete this process. Following rehydration, samples were ultrasonicated in alternating 20 sec pulse/10 sec off cycles for 5 min at an amplitude of 20% to form iEDAP-encapsulated lipid-based NPs. Samples were dialyzed for 1 hr following ultrasonication. Dynamic light scattering (DLS) and zeta potential measurements using a Malvern Zetasizer were used to characterize NP size and surface charge, respectively. […] Quant-IT assay (Thermo Fisher Scientific) measurements were used to measure average iE-DAP encapsulation at 998.1 μg/mL and an average encapsulation efficiency of 57.1%. To visualize iE-DAP-encapsulated NPs, 0.1 mol % of the fluorescent lipid tracer dye 3,3′-dioctadecyloxacarbocyanine perchlorate (DiO) were added to the lipid/cholesterol films. Mouse keratinocytes were challenged iE-DAP loaded NPs, or control empty NPs, at 37° C. at 10 μg/ml final concentration (˜30 μM iE-DAP), and then monitored for Sytox uptake assay for 24 h, as described above. […]

In assay [4] the test system is primary mouse keratinocytes. The experiment in a line: cytokine ELISAs from primary keratinocyte culture media. In kind it is cell-based. The method, then:
as §1
For cytokine ELISAs, primary keratinocytes were either mock-treated or treated with 8 μM TCT or 30 μM iE-DAP for 24 h Culture medium was harvested and centrifuged at 500 g for 15 mins and analyzed using ELISA kits detecting CXCL1 (KC), IL-6, TNF-α, IL-1α and IL-1β (R&D systems) following the manufacturer's protocols. In brief, 96-well ELISA plates were coated with capture antibody overnight at room temperature. The next day, the plate was washed three times with wash buffer and incubated with harvested media (100 μl) for 2 h followed by three washes and then probed with biotin-labelled detection antibody for 2 h. After three washes with wash buffer, plates were incubated with HRP-streptavidin for 20 min at room temperature (RT), developed with TMB (3,3′,5,5″-tetramethylbenzidine) substrate for 20 min at RT, and then stopped with IN sulfuric acid. Plate was analyzed at 450 nm with wavelength correction at 540 nm.

In assay [5] the test system is HSE dermal fibroblasts (CXCL8). Nature of the assay: CXCL8 induction in Human Skin Equivalents (HSE) skin organoids. In kind it is cell-based. The conditions noted are these: HSE epidermis treated with 30 μM iE-DAP for 24 h.
Assay [6] concerns primary dermal fibroblasts. Nature of the assay: CXCL1 (KC) ELISA from primary dermal fibroblasts. Type of assay: cell-based, mouse. The conditions noted are these: iE-DAP 30 μM or IL-1α 10 ng/ml, 24 hrs. The method, then:
Mouse dermal fibroblasts were isolated as described herein. In brief, mouse pinnae were incubated on a table shaker (200 rpm) in a collagenase D-pronase solution [2.5 mg/ml collagenase-D (Sigma), 20 mg/ml pronase (Sigma) diluted in 1M Tris, pH 8.0 and containing 1 μM EDTA (Sigma)] for 90 min at 37° C. Fibroblasts were then isolated by pressing digested skin through a 70 μm cell strainer, and cells were collected and cultured in RPMI 1640 medium with 10% FBS, 50 μM 2-mercaptoethanol, 100 μM asparagine, 2 mM glutamine, 1% penicillin-streptomycin for 2-4 passages before stimulating with immune elicitors, and/or harvesting media or cells.
For cytokine ELISAs from dermal fibroblast, cells were challenged with IL-1α (10 ng/ml) or 30 μM iE-DAP for 24 h, and media was collected and processed for ELISA as described above.

Assay [7] relates to mouse skin (NOD1/NOD2 response). Nature of the assay: neutrophil recruitment to pinnae after intradermal injection. In kind it is in vivo. To be noted: TCT 8 μM, iE-DAP 30 μM. As to the method:
[…] After 3 h, both ears were individually harvested, and stored in ice cold PBS on ice until further processing for flow cytometry staining.
Pinnae were cut into small pieces and incubated for 30 min at 37° C. in a solution of 1 mg/ml collagenase (Sigma) in DMEM media containing 10% FBS. Ice-cold FACS buffer (2% FBS in PBS) was added to skin samples to stop the reaction. Then samples were placed on 70 μm cell strainers and ground using a cell strainer pestle to create a single cell suspension. Cells were spun at 180 g for 5 min at 4° C. and resuspended in FACS buffer.
(§2) 1×10^6 cells were stained with F4/80-PE/Cy7 (1:200), CD45-alexaflour700 (1:200) and Gr1-PE (1:200) for 30 min on ice in the dark. Samples were washed three times with FACS buffer and analyzed with a Cytek Aurora cytometer. Results were analyzed with FlowJo software (Tree Star, USA).

Assay [8] deals with mouse peritoneum (NOD1/NOD2 response). Nature of the assay: neutrophil recruitment to the peritoneum after intraperitoneal injection. Type of assay: in vivo. The conditions noted are these: 3 h, iE-DAP 30 μM, MDP 10 μM. As to the method:
For peritoneal cell extraction, animals were euthanized and cells from peritoneal cavity were isolated by peritoneal lavage (58). Harvested cell suspensions were centrifuged at 300 g for 5 min at 4° C. and resuspended in FACS buffer.
as §2

The test system of a further assay is tape stripped mouse skin. The experiment in a line: neutrophil recruitment after topical application to tape stripped skin. In kind it is in vivo. The conditions noted are these: topical 10 μl of 30 μM iE-DAP on tape stripped skin, 3 h. The method, then: The epidermal barrier of the dorsal ear pinnae was disrupted by mild tape stripping. A small piece of surgical tape (Transpore surgical tape) was manually applied to the skin and removed, repeated 5 consecutive rounds using a fresh piece of tape for each round. Then, 10^7 CFU C. accolens or 30 μM iE-DAP in 50% glycerol was applied to one pinna and 50% glycerol was applied to contralateral pinna. After 3 h mice were euthanized, and pinnae were processed as described above.

The subject of assay [9] is primary human foreskin keratinocytes. Nature of the assay: Propidium Iodide (PI) uptake assay in primary human foreskin keratinocytes. Type of assay: cell-based. The conditions noted are these: indicated iE-DAP doses, standard tissue culture.

For `CN(Cc1cnc2nc(N)nc(N)c2n1)c1ccc(C(=O)N[C@@H](CCC(=O)O)C(=O)O)cc1` [MTX, methotrexate], the “inhibition of DAP-muropeptide triggered keratinocyte permeabilization (Sytox uptake)” value in assay [1] was “inhibited”. The “residual inflammation in Slc46a2−/− and Nod1−/− skin” value in assay [2] (Slc46a2−/− and Nod1−/− mice) is “no observable effect; also recorded: minimalistic effect”. Further, the “psoriasis like inflammation in WT skin” value in assay [2] (WT mice) is recorded as “reduced; also recorded: less inflamed”. For the same compound, on Slc46a2, the “effect on cytosolic accumulation / cellular uptake of click-iE-DAP” value is recorded as “blocked; also recorded: interfered”. Moreover, the “effect on NP-mediated iE-DAP / dye delivery” value in [3] is recorded as “failed to interfere; also recorded: did not affect”. Besides, the “IL-1α release in iE-DAP treated WT keratinocytes” value in assay [4] (250 μM MTX along with 30 μM iE DAP, 24 hours) was “prevented”. The “inhibition of DAP-muropeptide triggered IL-1α release” value in assay [4] (keratinocytes, iE-DAP, increasing concentrations of MTX, dose dependent) was “inhibited”.
As to `NC(CCCC(NC(=O)CC[C@@H](N)C(=O)O)C(=O)O)C(=O)O` (stereo in doubt) [iE-DAP, γ-D-Glu-mDAP], in [5], the “CXCL8 in HSE dermal fibroblasts” value is “induction of CXCL8; also recorded: High expression of CXCL8”. For the same compound, on Slc46a2, the “effect on cytosolic accumulation / cellular uptake of click-iE-DAP” value is reported as “interfered”. The “CXCL1 (KC) response of primary dermal fibroblasts” value in assay [6] is recorded as “did not respond; also recorded: unresponsive”. Moreover, the “neutrophil / leukocyte recruitment to the skin in WT mice” value in assay [7] (intradermal 10 μl, LPS 10 μg/ml, 1 to 24 h) is “recruited inflammatory cells”. In assay [7] (intradermal, 3 h, Tri-DAP 25 μM, C12-iE-DAP 20 μM, MDP 10 μM), the “neutrophil recruitment response in Slc46a2-deficient mice compared to WT” value is listed as “failed to respond; also recorded: significantly reduced”. For the same compound, in assay [8], the “neutrophil recruitment response in Slc46a2−/− mice” value was “did not respond” and the “neutrophil recruitment response in Slc46a3−/− mice” value is recorded as “responding normally”. Moreover, the “neutrophil recruitment response of WT skin” value with tape stripped mouse skin is given as “responded”. For the same compound, the “IL-1α release by keratinocytes” value in assay [4] (30 μM iE DAP, 24 h) is given as “released IL-1α”. The “induction of TNF, IL-6, IL-1β and IL-17 in keratinocytes” value in assay [4] (30 μM iE-DAP, 24 hrs) is listed as “not induced”. In assay [9], the “membrane permeabilization of primary human keratinocytes (PI uptake)” value is “failed to induce; also recorded: did not induce cell permeabilization”.
